What was measured:
[1] = system: L929 mouse fibroblast cells; experiment: Toxicology assay: OCR, ECAR and morphology under SLS; format: cell-based
Method: L929 mouse fibroblast cells were investigated under the influence of the reference toxicant sodium lauryl sulfate (SLS). The test settings included 12 h of pretreatment and 12 h of treatment with different concentrations of SLS. Throughout the assay, oxygen consumption and extracellular acidification, as well as morphology based on regular microscope images, were recorded.

[2] = system: Mouse fibroblast L929 cells
Method: A mitochondrial stress test was performed in a device of the present invention. Mouse fibroblast L929 cells were cultivated in the wells of a micro-titer plate at 37° C. and provided with fresh media in time intervals of 20 min.
A measurement cycle involved addition of following compounds at the indicated time points:
t=60 min: Addition of 1 μM oligomycin A
t=140 min: Addition of 1 μM antimycin A and 1 μM rotenone

[3] = 77.8 μg/ml SLS, first 3 h after SLS addition

SMILES	outcome after continuation of the treatment (12 h treatment) ([1]; 77.8 μg/ml SLS, continued treatment)	acidification (ECAR) [1, 3]	oxygen uptake (OCR) [1, 3]	OCRs and ECARs dose and time dependence ([1]; 77.8 μg/ml and 778 μg/ml SLS)	Maximum respiration (OCR) as % of the basal respiration ([2]; 0.13 μM and 0.25 μM FCCP added at t=100 min after 1 μM oligomycin A) [%]	reserve capacity ([2]; maximum respiration under FCCP minus basal respiration) [%]
CCCCCCCCCCCCOS(=O)(=O)[O-].[Na+] [SLS, sodium lauryl sulfate]	cell death and a drop in all metabolic values	increases	reduced	clear dose- and time-dependent reaction		
N#CC(C#N)=NNc1ccc(OC(F)(F)F)cc1 [FCCP, carbonyl cyanide p-(trifluoromethoxy) phenylhydrazone]					131	31

Reference: patent US20230204569A1, “ANALYSIS DEVICE” (INCYTON GMBH, priority 2020, published 2023)
